Key:
CDK2 = target: T1, CDK2 (Homo sapiens, UniProt P24941); experiment: CDK protein degradation activity (Western blotting), CDK2; type: cell-based; settings: MDA-MB-231 cells, 16 hours, Western blot
T1 construct: endogenous in cells; host or cells: MDA-MB-231
Outline: (§1)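 MDA-MB-231; cmpd 100 nM / 1 μM / 10 μM final vs DMSO, 16 h. Triton X-100 lysates (pH 7.5, phosphatase/protease inhibitors) → SDS-PAGE → Western blot, anti-CDK2, anti-CDK9, tubulin loading control; densitometry.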

CDK9 = target: T2, CDK9 (Homo sapiens, UniProt P50750); experiment: CDK protein degradation activity (Western blotting), CDK9; type: cell-based; settings: MDA-MB-231 cells, 16 hours, Western blot
T2 construct: endogenous in cells; host or cells: MDA-MB-231
Outline: as §1

T2 sequence (P50750 whole entry): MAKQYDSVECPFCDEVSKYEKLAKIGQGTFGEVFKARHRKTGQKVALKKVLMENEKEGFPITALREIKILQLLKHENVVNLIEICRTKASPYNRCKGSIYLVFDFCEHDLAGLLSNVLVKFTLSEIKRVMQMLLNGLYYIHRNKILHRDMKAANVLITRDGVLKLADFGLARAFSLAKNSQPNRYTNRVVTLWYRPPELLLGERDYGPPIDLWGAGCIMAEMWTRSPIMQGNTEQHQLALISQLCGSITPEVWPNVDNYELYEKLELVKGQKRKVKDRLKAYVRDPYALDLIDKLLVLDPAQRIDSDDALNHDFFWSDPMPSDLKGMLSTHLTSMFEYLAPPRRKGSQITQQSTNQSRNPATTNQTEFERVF

Row | Compound | Enzyme degradation CDK2 (% remaining) @ 0.1 μM (CDK2) | Enzyme degradation CDK2 (% remaining) @ 1 μM (CDK2) | Enzyme degradation CDK2 (% remaining) @ 10 μM (CDK2) | Enzyme degradation CDK9 (% remaining) @ 0.1 μM (CDK9) | Enzyme degradation CDK9 (% remaining) @ 1 μM (CDK9) | Enzyme degradation CDK9 (% remaining) @ 10 μM (CDK9)
1 | O=C1CCC(N2C(=O)c3cccc(OCC(=O)N4CCC(CCCN5CCN(c6ccc(Nc7ncnc8c7ncn8[C@H]7C[C@@H](NC(=O)Cc8ccccc8)C7)cc6)CC5)CC4)c3C2=O)C(=O)N1 (stereo partly drawn) [Compound 254, N-((1s,3s)-3-(6-((4-(4-(3-(1-(2-((2-(2,6-dioxopiperidin-3-yl)-1,3-dioxoisoindolin-4-yl)oxy)acetyl)piperidin-4-yl)propyl)piperazin-1-yl)phenyl)amino)-9H-purin-9-yl)cyclobutyl)-2-phenylacetamide] | 50% | 30% | 20% | 50% | 20% | 0%
2 | O=C1CC[C@H](N2C(=O)c3cccc(OCC(=O)N4CCN(CC5CCN(c6ccc(Nc7ncnc8c7ncn8C7CC(NC(=O)Cc8ccccc8)C7)cc6)CC5)CC4)c3C2=O)C(=O)N1 (stereo partly drawn) [Compound 326, N-((1s,3s)-3-(6-((4-(4-((4-(2-((2-(2,6-dioxopiperidin-3-yl)-1,3-dioxoisoindolin-4-yl)oxy)acetyl)piperazin-1-yl)methyl)piperidin-1-yl)phenyl)amino)-9H-purin-9-yl)cyclobutyl)-2-phenylacetamide] | 20% | 0% | 0% | 80% | 10% | 0%
3 | O=C1CC[C@H](N2C(=O)c3cccc(NCC(=O)N4CCC(CN5CCC(CNc6ncnc7c6ncn7[C@H]6C[C@@H](NC(=O)c7c(Cl)cccc7Cl)C6)CC5)CC4)c3C2=O)C(=O)N1 [Compound 170, 2,6-dichloro-N-((1s,3s)-3-(6-(((1-((1-((2-(2,6-dioxopiperidin-3-yl)-1,3-dioxoisoindolin-4-yl)glycyl)piperidin-4-yl)methyl)piperidin-4-yl)methyl)amino)-9H-purin-9-yl)cyclobutyl)benzamide] | 0% | 10% | 20% | 10% | 0% | 10%
4 | O=C1CC[C@H](N2C(=O)c3ccc(N4CCC(CC(=O)N5CCN(c6ccc(Nc7ncnc8c7ncn8[C@H]7C[C@@H](NC(=O)Cc8ccccc8)C7)cc6)CC5)CC4)cc3C2=O)C(=O)N1 [Compound 216, N-((1s,3s)-3-(6-((4-(4-(2-(1-(2-(2,6-dioxopiperidin-3-yl)-1,3-dioxoisoindolin-5-yl)piperidin-4-yl)acetyl)piperazin-1-yl)phenyl)amino)-9H-purin-9-yl)cyclobutyl)-2-phenylacetamide] | 40% | 40% | 50% | 50/50/50% | 50/50/50% | 50/50/50%
5 | CC(=O)N[C@H]1C[C@@H](n2cnc3c(NCC4CCN(CC5CCN(C(=O)COc6ccc7c(c6)C(=O)N([C@H]6CCC(=O)NC6=O)C7=O)CC5)CC4)ncnc32)C1 [Compound 154, N-((1s,3s)-3-(6-(((1-((1-(2-((2-(2,6-dioxopiperidin-3-yl)-1,3-dioxoisoindolin-5-yl)oxy)acetyl)piperidin-4-yl)methyl)piperidin-4-yl)methyl)amino)-9H-purin-9-yl)cyclobutyl)acetamide] | 100% | 70% | 70% | 90% | 70% | 30%
6 | O=C1CCC(N2C(=O)c3ccc(NCC(=O)N4CCC(CN5CCC(CNc6ncnc7c6ncn7[C@H]6C[C@@H](NC(=O)Cc7ccccc7)C6)CC5)CC4)cc3C2=O)C(=O)N1 (stereo partly drawn) [Compound 185, N-((1s,3s)-3-(6-(((1-((1-((2-(2,6-dioxopiperidin-3-yl)-1,3-dioxoisoindolin-5-yl)glycyl)piperidin-4-yl)methyl)piperidin-4-yl)methyl)amino)-9H-purin-9-yl)cyclobutyl)-2-phenylacetamide] | 100/100/100% | 100/100/100% | 100/100/100% | 0/0/0% | 0/0/0% | 0/0/0%
7 | O=C1CC[C@H](N2C(=O)c3ccc(N4CCC(CN5CCN(c6ccc(Nc7ncnc8c7ncn8C7CC(NC(=O)c8c(Cl)cccc8Cl)C7)cc6)CC5)CC4)cc3C2=O)C(=O)N1 (stereo partly drawn) [Compound 166, 2,6-dichloro-N-((1s,3s)-3-(6-((4-(4-((1-(2-(2,6-dioxopiperidin-3-yl)-1,3-dioxoisoindolin-5-yl)piperidin-4-yl)methyl)piperazin-1-yl)phenyl)amino)-9H-purin-9-yl)cyclobutyl)benzamide] | 10% | 20% | 20% | 0/0/0% | 0/0/0% | 0/0/0%
8 | O=C1CC[C@H](N2C(=O)c3ccc(N4CCC(CN5CCC(CNc6ncnc7c6ncn7[C@H]6C[C@@H](NC(=O)c7c(Cl)cccc7Cl)C6)CC5)CC4)cc3C2=O)C(=O)N1 [Compound 173, 2,6-dichloro-N-((1s,3s)-3-(6-(((1-((1-(2-(2,6-dioxopiperidin-3-yl)-1,3-dioxoisoindolin-5-yl)piperidin-4-yl)methyl)piperidin-4-yl)methyl)amino)-9H-purin-9-yl)cyclobutyl)benzamide] | 30% | 30% | 50% | 50% | 20% | 0%
9 | O=C1CC[C@H](N2C(=O)c3cccc(NCC(=O)N4CCC5(CC(N6CCN(c7ccc(Nc8ncnc9c8ncn9C8CC(NC(=O)Cc9ccccc9)C8)cc7)CC6)C5)C4)c3C2=O)C(=O)N1 (stereo partly drawn) [Compound 263, N-((1s,3s)-3-(6-((4-(4-(6-((2-(2,6-dioxopiperidin-3-yl)-1,3-dioxoisoindolin-4-yl)glycyl)-6-azaspiro[3.4]octan-2-yl)piperazin-1-yl)phenyl)amino)-9H-purin-9-yl)cyclobutyl)-2-phenylacetamide] | 50% | 40% | 40% | 20% | 0% | 0%
10 | O=C1CC[C@H](N2C(=O)c3ccc(N4CCC(C(=O)N5CCC(CCCN6CCN(c7ccc(Nc8ncnc9c8ncn9C8CC(NC(=O)Cc9ccccc9)C8)cc7)CC6)CC5)CC4)cc3C2=O)C(=O)N1 (stereo partly drawn) [Compound 354, N-((1s,3s)-3-(6-((4-(4-(3-(1-(1-(2-(2,6-dioxopiperidin-3-yl)-1,3-dioxoisoindolin-5-yl)piperidin-4-carbonyl)piperidin-4-yl)propyl)piperazin-1-yl)phenyl)amino)-9H-purin-9-yl)cyclobutyl)-2-phenylacetamide] | 50% | 50% | 60% | 10/10/10% | 10/10/10% | 10/10/10%
11 | Cc1cccc(C(=O)NC2CC(n3cnc4c(Nc5ccc(N6CCN(C7CC8(CCN(C(=O)C9CCN(c%10ccc%11c(c%10)C(=O)N([C@H]%10CCC(=O)NC%10=O)C%11=O)CC9)CC8)C7)CC6)cc5)ncnc43)C2)n1 (stereo partly drawn) [Compound 403, N-((1s,3s)-3-(6-((4-(4-(7-(1-(2-(2,6-dioxopiperidin-3-yl)-1,3-dioxoisoindolin-5-yl)piperidin-4-carbonyl)-7-azaspiro[3.5]nonan-2-yl)piperazin-1-yl)phenyl)amino)-9H-purin-9-yl)cyclobutyl)-6-methylpicolinamide] | 60% | 60% | 90% | 0/0/0% | 0/0/0% | 0/0/0%
